Data on one molecule can be found in patent publication US20260365662A1, “ISOANDROGRAPHOLIDE ANALOGS AND METHOD FOR TREATMENT USING THE SAME” (Enveda Therapeutics, Inc., priority 2023, published 2026).

“Also recorded” adds a separate entry of the source.

Holding throughout (assay type): in vivo
Experiment [1] deals with female BALB/c mouse. As to the kind of experiment: MC-903 induced atopic dermatitis model, therapeutic mode, low doses (Example 16). Conditions: p.o. twice a day; for dermatitis severity scores: 0.01 to 10 mg/kg, vs MC-903 vehicle control. The method, then: (§1) Experimental details: Preclinical animal model of atopic dermatitis was developed by MC-903, a vitamin-D analogue. In the current study, the test item Compound 2 was screened in therapeutic mode, to evaluate its efficacy in MC-903 induced AD model. 2 nmol of MC-903 was topically applied to 8-10 weeks old female BALB/c mouse from G2-G8 group at a volume of 50 μl/mouse on back skin on every alternate day for 14 days to induced disease. For the G1 group, (Normal+ethanol control) the same volume of ethanol that was used to solubilize MC-903 was applied. Clobetasol (0.05%, 15 mg/mouse) was applied topically once a day to G3 group animals. Compound 2 was administered per oral twice a day at 0.01, 0.1, 1, 3 & 10 mg/kg to respective treatment groups (G4-G8) for 14 days. On the day of MC-903 administration, test compounds were dosed one hour prior to MC-903 insult. Clinical scores to assess the disease intensity were measured from visual examination for erythema, scaling and back skin thickness using dial caliper. All the scores were carried by blinded observers to treatment groups. Disease severity was assessed by dermatitis severity scores.

Experiment [2] concerns female BALB/c mouse. Description: MC-903 induced atopic dermatitis model, therapeutic mode (Example 14). Conditions: twice a day, vs MC-903 vehicle control. The method, then: Experimental details: Preclinical animal model of atopic dermatitis was developed by MC-903, a vitamin-D analogue. In the current study, the test item Compound 2 was screened in therapeutic mode, to evaluate its efficacy in MC-903 induced AD model. 2 nmol of MC-903 was topically applied to 8-10 weeks old female BALB/c mouse from G2-G8 group at a volume of 50 μl/mouse on back skin on every alternate day for 14 days to induced disease. For the G1 group, (Normal+ethanol control) the same volume of ethanol that was used to solubilize MC-903 was applied. Clobetasol (0.05%, 15 mg/mouse) was applied topically once a day to G3 group animals and Ruxolitinib (1.5%, 20 mg/mouse) was applied topically twice a day to G4 group animals. Compound 2 was administered twice a day to respective treatment groups (G4-G8) for 14 days. On the day of MC-903 administration, test compounds were dosed one hour prior to MC-903 insult. Clinical scores to assess the disease intensity were measured from visual examination for erythema, scaling and back skin thickness using dial caliper. All the scores were carried by blinded observers to treatment groups. Disease severity was assessed by dermatitis erythema & dermatitis scaling.

The subject of experiment [3] is female BALB/c mouse. As to the kind of experiment: MC-903 induced atopic dermatitis model, therapeutic mode, vs oral JAK-i (Example 15). Conditions: twice a day; for dermatitis severity scores: vs MC-903 vehicle control. The method, then:
as §1, with “group animals, Upadacitinib” for “group animals. Compound 2”, “was dosed” for “was administered per”, “at 2, 6” for “at 0.01, 0.1, 1, 3”, “& 20” for “& 10”, “mg/kg to G4, G5 & G6 respectively. Compound 2 was administered twice a day” for “mg/kg”, “groups (G7-G10)” for “groups (G4-G8)”

In experiment [4] the test system is female BALB/c mouse. As to the kind of experiment: Hapten-induced atopic dermatitis model (Example 13). Conditions: for itch / number of scratches in scratch test: 10 minutes, day 13, four hours after last challenge; for immune cell infiltration: histopathology; for immune cell infiltration / epidermal thickness / histopathological changes / histopathology score: back skin; for epidermal thickness / histopathological changes / histopathology score / IL-4 expression: prophylactic; for IL-4 expression / dermatitis severity scores: vs hapten vehicle control; for dermatitis severity scores: twice a day, 14 days. The method, then: Experimental details: Preclinical animal model of atopic dermatitis was developed by [COMPOUND LEFT OUT] [COMPOUND LEFT OUT], a Hapten. In the current study, the test item Compound 2 was screened to evaluate its efficacy in [COMPOUND LEFT OUT] induced AD model. 0.15% of [COMPOUND LEFT OUT] was topically applied to 7-8 weeks old female BALB/c mouse from G2-G7 group at a volume of 100 μl/mouse on back skin once in 3 days to induced disease. For the G1 group, (Vehicle control) the same volume of acetone and olive oil (3:1) that was used to solubilize [COMPOUND LEFT OUT] was applied. Dexamethasone (5 mg/kg, p.o, qd) was dosed per oral once a day to G3 group animals. Compound 2 was administered twice a day to respective treatment groups (G4-G6) for 14 days. On the day of [COMPOUND LEFT OUT] administration, test compounds were dosed one hour prior to [COMPOUND LEFT OUT] insult. Clinical scores to assess the disease intensity were measured from visual examination for erythema, scaling, excoriation, and back skin thickness using dial caliper. All the scores were carried by blinded observers to treatment groups. Cumulative dermatitis severity scores were calculated by adding up the individual scores of erythema, scaling, thickness & excoriation. On day-13 of the study, four hours after the last [COMPOUND LEFT OUT] challenge, scratching behavior was recorded using a web camera in acrylic observational chambers. The number of scratches were measured for 10 minutes. Later, all the animals were terminally bled under mild anesthesia followed by humane sacrifice and back skin tissue was dissected. Required skin tissue samples were collected in fixative and part of the tissue was flash-frozen in liquid nitrogen and stored at −80 °C. Collected tissue samples were processed and used for biomarker analysis using gene and protein expression analysis by qPCR & ELISA, pharmacokinetic analysis by LC-MS and histopathology studies.

Regarding `C[C@@]12CCC(=O)N[C@@](C)(CO)[C@H]1CC[C@@]1(C)O[C@H](C3=CCOC3=O)C[C@@H]21` [Compound 2, (2S,3aR,5aS,6R,10aR,10bS)-6-(hydroxymethyl)-3a,6,10a-trimethyl-2-(2-oxo-2,5-dihydrofuran-3-yl) dodecahydro-8H-benzofuro[5,4-c]azepin-8-one], the minimal effective dose in the experiment on female BALB/c mouse [1] (Mus musculus, po, 336 h, doses 0.01, 0.1, 1, 3, 10 mg/kg, read-out: lowest active dose (dermatitis severity scores)) is 0.1 mg/kg. The dermatitis severity scores result in the experiment on female BALB/c mouse [1] is given as “significant dose dependent decrease”. Besides, the dermatitis severity scores result with female BALB/c mouse [1] (listed as compound 2) is reported as “significantly reduces”. Further, in the experiment with female BALB/c mouse [2], the dermatitis erythema scores result is “dose dependent decrease” and the dermatitis scaling scores result was “dose dependent decrease”. For the same molecule, in the experiment on female BALB/c mouse [2] (listed as compound 2), the dermatitis erythema scores result is listed as “significantly reduces” and the dermatitis scaling scores result was “significantly reduces”. Also, in the experiment with female BALB/c mouse [3], the “efficacy compared with oral JAK-i” value is recorded as “Efficacy On-Par with Oral JAK-i” and the dermatitis severity scores entry is given as “significant dose dependent decrease in dermatitis severity scores on-par with oral JAK-i”. Further, in the experiment with female BALB/c mouse [3] (listed as compound 2), the dermatitis severity scores result is recorded as “significantly reduces dermatitis severity scores on-par with oral JAK-i”. Further, in the experiment with female BALB/c mouse [4], the “itch / number of scratches in scratch test” value is “reduced”, the immune cell infiltration result is “significantly reduced”, the epidermal thickness result is given as “significantly reduced” and the “histopathological changes / histopathology score” value is given as “significantly reduced”. In the experiment on female BALB/c mouse [4], the IL-4 expression entry is “reduced” and the dermatitis severity scores entry was “Significantly Reduces; also recorded: dose dependent decrease”. In the experiment with female BALB/c mouse [4] (listed as compound 2), the “itch / number of scratches in scratch test” value was “reduces itch comparably to current first line therapy”, the immune cell infiltration entry is given as “reduces immune cell infiltration”, the epidermal thickness entry is “significantly reduces” and the “histopathological changes / histopathology score” value is recorded as “ameliorates; also recorded: significantly reduces”. In the experiment on female BALB/c mouse [4] (listed as compound 2), the IL-4 expression entry is “impacts IL-4 expression” and the dermatitis severity scores entry is recorded as “dose dependent decrease”.
